Data on five compounds can be found in patent US20240245059A1 (priority 2021, published 2024).

One assay has as its system Fusarium graminearum. The assay is classed as in vivo. To be noted: 2 L/ha of 10% w/w solution; one application 2 days after inoculation; incidence of affected leaves vs untreated.
In the next assay the test system is Ca. Phytoplasma vitis. In words: Open field testing on phytoplasma, ddPCR quantification of DNA and RNA in Pervinca rosea. The assay is classed as in vivo. To be noted: 2 L/ha, endotherapy treatment, 48 hours after exposure, high values = reduced/no antibacterial activity; for % DNA: untreated 91; for % RNA: untreated 94. As for the experimental part: Open Filed Testing on Phytoplasma—Antibacterial Activity on Ca. Phytoplasma vitis by Mixtures of Fatty Acids and Peptides
The activity on phytoplasma of three peptides (SEQ.ID.NO.: 1, 2 and 9), of crotonic and pelargonic acid and of the mixtures of these fatty acids with the aforementioned peptides were evaluated on Pervinca rosea suitably contaminated by Ca. Phytoplasma vitis.
The peptides of SEQ.ID.NO.: 1, 2 and 9 were dissolved in water at a concentration of 10% w/w. Aqueous solutions of crotonic and pelargonic acids were prepared at a concentration of 10% w/w. Aqueous solutions of peptides and solutions of fatty acids were mixed together, in order to obtain six different mixtures at a concentration of 10% w/w of peptide and acid.
The evaluation of the efficacy of the products used was evaluated with ddPCR (Droplet Digital PCR) technique for the quantification of the genetic material (DNA and RNA) after 48 hours from exposure to endotherapy treatment. High % DNA and RNA values are related to reduced/no antibacterial activity.

As for `C/C=C/C(=O)O` [Crotonic acid], in the assay on Fusarium graminearum, the “Efficacy (%) 1° check” value was 8%, the “Efficacy (%) 2° check” value turned out to be 7% and the “Efficacy (%) 3° check” value was 10%. Moreover, in the assay on Ca. Phytoplasma vitis, the “% DNA” value amounted to 76% and the “% RNA” value was 84%.

With `CCCCCCCCC(=O)O` [Pelargonic acid], in the assay on Fusarium graminearum, the “Efficacy (%) 1° check” value stood at 10%, the “Efficacy (%) 2° check” value came out at 8% and the “Efficacy (%) 3° check” value is recorded as 9%. Moreover, in the assay with Ca. Phytoplasma vitis, the “% DNA” value amounted to 84% and the “% RNA” value was found to be 86%.

“Hs_AFP1: plant defensin antimicrobial peptide, SEQ.ID.NO: 1, per se known (DGVKLCDVPSGTWSGHCGSSSKCSQQCKDREHFAYGGACHYQFPSVKCFCKRQC; None)”: in the assay on Fusarium graminearum, the “Efficacy (%) 1° check” value is 35%, the “Efficacy (%) 2° check” value stood at 27.4% and the “Efficacy (%) 3° check” value was 26.5%. In the assay on Ca. Phytoplasma vitis, the “% DNA” value amounted to 75% and the “% RNA” value came to 78%.

Take “Ps_Def1: plant defensin antimicrobial peptide, SEQ.ID.NO: 9 (RMCKTPSGKFKGYCVNNTNCKNVCRTEGFPTGSCDFHVAGRKCYCYKPCP; None)”: in the assay on Fusarium graminearum, the “Efficacy (%) 1° check” value worked out at 30%, the “Efficacy (%) 2° check” value came out at 27% and the “Efficacy (%) 3° check” value amounted to 32%. Besides, in the assay with Ca. Phytoplasma vitis, the “% DNA” value is 82% and the “% RNA” value turned out to be 80%.

For the compound “Rs_AFP2: plant defensin antimicrobial peptide, SEQ.ID.NO: 2, per se known (QKLCQRPSGTWSGVCGNNNACKNQCIRLEKARHGSCNYVFPAHKCICYFPC; None)”, in the assay with Fusarium graminearum, the “Efficacy (%) 1° check” value is on record as 38%, the “Efficacy (%) 2° check” value is listed as 34% and the “Efficacy (%) 3° check” value was 25.4%. In the assay with Ca. Phytoplasma vitis, the “% DNA” value was 81% and the “% RNA” value turned out to be 80%.
